Consider 16 molecules from the supplement of paper PMC11368000.

The first assay deals with 1392 (donor line of iPSC-derived cardiomyocytes). The assay is described as follows: POD (EC05) for increase in beat frequency (positive chronotrope) vs vehicle; higher = less potent (higher point of departure). Conditions: exposure time: 90 min. Here is the method: (§1)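 Human iPSC-derived cardiomyocytes from 16 donors were exposed for 90 min at 37 °C to each PFAS at 0.1, 1, 10 and 100 µM in 0.5% DMSO, 384-well plates. Kinetic Ca2+ flux (FLIPR) and Hoechst nuclei counts were normalised to vehicle wells and fitted with a hierarchical Bayesian Hill model to give donor-specific PODs: EC05 for beat-rate increase or decrease and for decay-to-rise ratio increase (QT proxy), EC95 for peak-frequency loss (asystole), EC10 for total cell number loss. 0.03 µM is the lower bound.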
In turn, `O=C(O)C(F)(F)C(F)(F)OC(F)(F)F` [Perfluoro-3-methoxypropanoic_acid] registered a POD vs vehicle above 100 µM.
Still for that read-out and setting: the result for `O=C(O)C(F)(F)C(F)(F)C(F)(F)OC(F)(C(F)(F)F)C(F)(F)F` [Perfluoro-4-isopropoxybutanoic_acid] reads above 100 µM; that for `O=C(O)C(F)(F)C(F)(F)C(F)(F)F` [Perfluorobutanoic_acid], above 100 µM; that for `O=C(O)C(F)(F)C(F)(F)C(F)(F)C(F)(F)C(F)(F)C(F)(F)C(F)(F)C(F)(F)C(F)(F)F` [Perfluorodecanoic_acid], above 100 µM.
In the case of `O=C(O)C(F)(F)C(F)(F)C(F)(F)C(F)(F)C(F)(F)C(F)(F)F` [Perfluoroheptanoic_acid], the POD vs vehicle was above 100 µM.
`NS(=O)(=O)C(F)(F)C(F)(F)C(F)(F)C(F)(F)C(F)(F)C(F)(F)F` [Perfluorohexanesulfonamide] registered a POD vs vehicle above 100 µM.
`O=S(=O)(O)C(F)(F)C(F)(F)C(F)(F)C(F)(F)C(F)(F)C(F)(F)F` [Perfluorohexanesulfonic_acid]: the POD vs vehicle is above 100 µM.
On the same count and under the same terms, with `O=C(O)C(F)(F)C(F)(F)C(F)(F)C(F)(F)C(F)(F)F` [Perfluorohexanoic_acid] the figure was above 100 µM.
Consider `O=C(O)C(F)(F)C(F)(F)C(F)(F)C(F)(F)C(F)(F)C(F)(F)C(F)(F)C(F)(F)F` [Perfluorononanoic_acid], for which the POD vs vehicle was above 100 µM.
With `NC(=O)C(F)(F)C(F)(F)C(F)(F)C(F)(F)C(F)(F)C(F)(F)C(F)(F)F` [Perfluorooctanamide], the POD vs vehicle is above 100 µM.
On the same count and under the same terms, with `N=C(N)C(F)(F)C(F)(F)C(F)(F)C(F)(F)C(F)(F)C(F)(F)C(F)(F)F` [Perfluorooctanamidine] the figure was above 100 µM; with `O=S(=O)(O)C(F)(F)C(F)(F)C(F)(F)C(F)(F)C(F)(F)C(F)(F)C(F)(F)C(F)(F)F` [Perfluorooctanesulfonic_acid], above 100 µM; with `O=C(O)C(F)(F)C(F)(F)C(F)(F)C(F)(F)C(F)(F)C(F)(F)C(F)(F)F` [Perfluorooctanoic_acid], above 100 µM.
Still for that read-out and setting: the result for `O=C(O)C(F)(F)C(F)(F)C(F)(F)C(F)(F)F` [Perfluoropentanoic_acid] reads above 100 µM.
On the same count and under the same terms, the result for `O=C(O)C(F)(F)C(F)(F)F` [Perfluoropropanoic_acid] reads above 100 µM; that for `O=S(=O)([O-])C(F)(F)C(F)(F)C(F)(F)C(F)(F)F.[K+]` [Potassium_perfluorobutanesulfonate], above 100 µM.

A further assay concerns 1434 (donor line of iPSC-derived cardiomyocytes). The assay is described as above. The conditions noted are these: exposure time: 90 min. The method, then: as §1
The molecule `O=C(O)C(F)(F)C(F)(F)OC(F)(F)F` [Perfluoro-3-methoxypropanoic_acid] showed a POD vs vehicle above 100 µM.
On to `O=C(O)C(F)(F)C(F)(F)C(F)(F)OC(F)(C(F)(F)F)C(F)(F)F` [Perfluoro-4-isopropoxybutanoic_acid], for which the POD vs vehicle was above 100 µM.
In turn, `O=C(O)C(F)(F)C(F)(F)C(F)(F)F` [Perfluorobutanoic_acid] gave a POD vs vehicle above 100 µM.
The molecule `O=C(O)C(F)(F)C(F)(F)C(F)(F)C(F)(F)C(F)(F)C(F)(F)C(F)(F)C(F)(F)C(F)(F)F` [Perfluorodecanoic_acid] displayed a POD vs vehicle above 100 µM.
`O=C(O)C(F)(F)C(F)(F)C(F)(F)C(F)(F)C(F)(F)C(F)(F)F` [Perfluoroheptanoic_acid] showed a POD vs vehicle above 100 µM.
Molecule `NS(=O)(=O)C(F)(F)C(F)(F)C(F)(F)C(F)(F)C(F)(F)C(F)(F)F` [Perfluorohexanesulfonamide] came in with a POD vs vehicle above 100 µM.
In turn, `O=S(=O)(O)C(F)(F)C(F)(F)C(F)(F)C(F)(F)C(F)(F)C(F)(F)F` [Perfluorohexanesulfonic_acid] returned a POD vs vehicle above 100 µM.
Take `O=C(O)C(F)(F)C(F)(F)C(F)(F)C(F)(F)C(F)(F)F` [Perfluorohexanoic_acid]: the POD vs vehicle was above 100 µM.
For the molecule `O=C(O)C(F)(F)C(F)(F)C(F)(F)C(F)(F)C(F)(F)C(F)(F)C(F)(F)C(F)(F)F` [Perfluorononanoic_acid], the POD vs vehicle was above 100 µM.
Turning to `NC(=O)C(F)(F)C(F)(F)C(F)(F)C(F)(F)C(F)(F)C(F)(F)C(F)(F)F` [Perfluorooctanamide], the POD vs vehicle is above 100 µM.
The same measure, in the same setting: with `N=C(N)C(F)(F)C(F)(F)C(F)(F)C(F)(F)C(F)(F)C(F)(F)C(F)(F)F` [Perfluorooctanamidine] the figure was above 100 µM; with `O=S(=O)(O)C(F)(F)C(F)(F)C(F)(F)C(F)(F)C(F)(F)C(F)(F)C(F)(F)C(F)(F)F` [Perfluorooctanesulfonic_acid], above 100 µM.
`O=C(O)C(F)(F)C(F)(F)C(F)(F)C(F)(F)C(F)(F)C(F)(F)C(F)(F)F` [Perfluorooctanoic_acid] showed a POD vs vehicle above 100 µM.
As to `O=C(O)C(F)(F)C(F)(F)C(F)(F)C(F)(F)F` [Perfluoropentanoic_acid], the POD vs vehicle was above 100 µM.
As to `O=C(O)C(F)(F)C(F)(F)F` [Perfluoropropanoic_acid], the POD vs vehicle was above 100 µM.
Turning to `O=S(=O)([O-])C(F)(F)C(F)(F)C(F)(F)C(F)(F)F.[K+]` [Potassium_perfluorobutanesulfonate], the POD vs vehicle was above 100 µM.

For another assay, the system named is 20084 (donor line of iPSC-derived cardiomyocytes). The assay is described as above. Conditions: exposure time: 90 min. Here is the method: as §1
`O=C(O)C(F)(F)C(F)(F)OC(F)(F)F` [Perfluoro-3-methoxypropanoic_acid] gave a POD vs vehicle above 100 µM.
Still for that read-out and setting: the result for `O=C(O)C(F)(F)C(F)(F)C(F)(F)OC(F)(C(F)(F)F)C(F)(F)F` [Perfluoro-4-isopropoxybutanoic_acid] reads above 100 µM; that for `O=C(O)C(F)(F)C(F)(F)C(F)(F)F` [Perfluorobutanoic_acid], above 100 µM; that for `O=C(O)C(F)(F)C(F)(F)C(F)(F)C(F)(F)C(F)(F)C(F)(F)C(F)(F)C(F)(F)C(F)(F)F` [Perfluorodecanoic_acid], above 100 µM.
On to `O=C(O)C(F)(F)C(F)(F)C(F)(F)C(F)(F)C(F)(F)C(F)(F)F` [Perfluoroheptanoic_acid], for which the POD vs vehicle was above 100 µM.
`NS(=O)(=O)C(F)(F)C(F)(F)C(F)(F)C(F)(F)C(F)(F)C(F)(F)F` [Perfluorohexanesulfonamide] came in with a POD vs vehicle above 100 µM.
With `O=S(=O)(O)C(F)(F)C(F)(F)C(F)(F)C(F)(F)C(F)(F)C(F)(F)F` [Perfluorohexanesulfonic_acid], the POD vs vehicle was above 100 µM.
Same read-out and setting: with `O=C(O)C(F)(F)C(F)(F)C(F)(F)C(F)(F)C(F)(F)F` [Perfluorohexanoic_acid] the figure was above 100 µM.
On the same count and under the same terms, with `O=C(O)C(F)(F)C(F)(F)C(F)(F)C(F)(F)C(F)(F)C(F)(F)C(F)(F)C(F)(F)F` [Perfluorononanoic_acid] the figure was above 100 µM; with `NC(=O)C(F)(F)C(F)(F)C(F)(F)C(F)(F)C(F)(F)C(F)(F)C(F)(F)F` [Perfluorooctanamide], above 100 µM.
Same read-out and setting: the result for `N=C(N)C(F)(F)C(F)(F)C(F)(F)C(F)(F)C(F)(F)C(F)(F)C(F)(F)F` [Perfluorooctanamidine] reads above 100 µM; that for `O=S(=O)(O)C(F)(F)C(F)(F)C(F)(F)C(F)(F)C(F)(F)C(F)(F)C(F)(F)C(F)(F)F` [Perfluorooctanesulfonic_acid], above 100 µM.
The molecule `O=C(O)C(F)(F)C(F)(F)C(F)(F)C(F)(F)C(F)(F)C(F)(F)C(F)(F)F` [Perfluorooctanoic_acid] returned a POD vs vehicle above 100 µM.
Consider `O=C(O)C(F)(F)C(F)(F)C(F)(F)C(F)(F)F` [Perfluoropentanoic_acid], for which the POD vs vehicle is above 100 µM.
Molecule `O=C(O)C(F)(F)C(F)(F)F` [Perfluoropropanoic_acid] registered a POD vs vehicle above 100 µM.
The molecule `O=S(=O)([O-])C(F)(F)C(F)(F)C(F)(F)C(F)(F)F.[K+]` [Potassium_perfluorobutanesulfonate] registered a POD vs vehicle above 100 µM.

The test system of another assay is 1118 (donor line of iPSC-derived cardiomyocytes). Described as above. Conditions: exposure time: 90 min. Here is the method: as §1
On to `O=C(O)C(F)(F)C(F)(F)OC(F)(F)F` [Perfluoro-3-methoxypropanoic_acid], for which the POD vs vehicle was above 100 µM.
On to `O=C(O)C(F)(F)C(F)(F)C(F)(F)OC(F)(C(F)(F)F)C(F)(F)F` [Perfluoro-4-isopropoxybutanoic_acid], for which the POD vs vehicle was above 100 µM.
On the same count and under the same terms, with `O=C(O)C(F)(F)C(F)(F)C(F)(F)F` [Perfluorobutanoic_acid] the figure was above 100 µM; with `O=C(O)C(F)(F)C(F)(F)C(F)(F)C(F)(F)C(F)(F)C(F)(F)C(F)(F)C(F)(F)C(F)(F)F` [Perfluorodecanoic_acid], above 100 µM; with `O=C(O)C(F)(F)C(F)(F)C(F)(F)C(F)(F)C(F)(F)C(F)(F)F` [Perfluoroheptanoic_acid], above 100 µM.
Take `NS(=O)(=O)C(F)(F)C(F)(F)C(F)(F)C(F)(F)C(F)(F)C(F)(F)F` [Perfluorohexanesulfonamide]: the POD vs vehicle was above 100 µM.
The same measure, in the same setting: the result for `O=S(=O)(O)C(F)(F)C(F)(F)C(F)(F)C(F)(F)C(F)(F)C(F)(F)F` [Perfluorohexanesulfonic_acid] reads above 100 µM; that for `O=C(O)C(F)(F)C(F)(F)C(F)(F)C(F)(F)C(F)(F)F` [Perfluorohexanoic_acid], above 100 µM.
For the molecule `O=C(O)C(F)(F)C(F)(F)C(F)(F)C(F)(F)C(F)(F)C(F)(F)C(F)(F)C(F)(F)F` [Perfluorononanoic_acid], the POD vs vehicle is above 100 µM.
`NC(=O)C(F)(F)C(F)(F)C(F)(F)C(F)(F)C(F)(F)C(F)(F)C(F)(F)F` [Perfluorooctanamide] displayed a POD vs vehicle above 100 µM.
On the same count and under the same terms, the result for `N=C(N)C(F)(F)C(F)(F)C(F)(F)C(F)(F)C(F)(F)C(F)(F)C(F)(F)F` [Perfluorooctanamidine] reads above 100 µM; that for `O=S(=O)(O)C(F)(F)C(F)(F)C(F)(F)C(F)(F)C(F)(F)C(F)(F)C(F)(F)C(F)(F)F` [Perfluorooctanesulfonic_acid], above 100 µM.
Same read-out and setting: the result for `O=C(O)C(F)(F)C(F)(F)C(F)(F)C(F)(F)C(F)(F)C(F)(F)C(F)(F)F` [Perfluorooctanoic_acid] reads above 100 µM; that for `O=C(O)C(F)(F)C(F)(F)C(F)(F)C(F)(F)F` [Perfluoropentanoic_acid], above 100 µM; that for `O=C(O)C(F)(F)C(F)(F)F` [Perfluoropropanoic_acid], above 100 µM.
On the same count and under the same terms, the result for `O=S(=O)([O-])C(F)(F)C(F)(F)C(F)(F)C(F)(F)F.[K+]` [Potassium_perfluorobutanesulfonate] reads above 100 µM.

The next assay relates to 1565 (donor line of iPSC-derived cardiomyocytes). Described as above. Conditions: exposure time: 90 min. Here is the method:
as §1
For the molecule `O=C(O)C(F)(F)C(F)(F)OC(F)(F)F` [Perfluoro-3-methoxypropanoic_acid], the POD vs vehicle was above 100 µM.
On the same count and under the same terms, with `O=C(O)C(F)(F)C(F)(F)C(F)(F)OC(F)(C(F)(F)F)C(F)(F)F` [Perfluoro-4-isopropoxybutanoic_acid] the figure was above 100 µM.
`O=C(O)C(F)(F)C(F)(F)C(F)(F)F` [Perfluorobutanoic_acid] showed a POD vs vehicle above 100 µM.
Still for that read-out and setting: with `O=C(O)C(F)(F)C(F)(F)C(F)(F)C(F)(F)C(F)(F)C(F)(F)C(F)(F)C(F)(F)C(F)(F)F` [Perfluorodecanoic_acid] the figure was above 100 µM.
`O=C(O)C(F)(F)C(F)(F)C(F)(F)C(F)(F)C(F)(F)C(F)(F)F` [Perfluoroheptanoic_acid] displayed a POD vs vehicle above 100 µM.
As for `NS(=O)(=O)C(F)(F)C(F)(F)C(F)(F)C(F)(F)C(F)(F)C(F)(F)F` [Perfluorohexanesulfonamide], the POD vs vehicle is above 100 µM.
As to `O=S(=O)(O)C(F)(F)C(F)(F)C(F)(F)C(F)(F)C(F)(F)C(F)(F)F` [Perfluorohexanesulfonic_acid], the POD vs vehicle is above 100 µM.
The molecule `O=C(O)C(F)(F)C(F)(F)C(F)(F)C(F)(F)C(F)(F)F` [Perfluorohexanoic_acid] returned a POD vs vehicle above 100 µM.
The same measure, in the same setting: the result for `O=C(O)C(F)(F)C(F)(F)C(F)(F)C(F)(F)C(F)(F)C(F)(F)C(F)(F)C(F)(F)F` [Perfluorononanoic_acid] reads above 100 µM.
Still for that read-out and setting: with `NC(=O)C(F)(F)C(F)(F)C(F)(F)C(F)(F)C(F)(F)C(F)(F)C(F)(F)F` [Perfluorooctanamide] the figure was above 100 µM; with `N=C(N)C(F)(F)C(F)(F)C(F)(F)C(F)(F)C(F)(F)C(F)(F)C(F)(F)F` [Perfluorooctanamidine], above 100 µM; with `O=S(=O)(O)C(F)(F)C(F)(F)C(F)(F)C(F)(F)C(F)(F)C(F)(F)C(F)(F)C(F)(F)F` [Perfluorooctanesulfonic_acid], above 100 µM.
Same read-out and setting: with `O=C(O)C(F)(F)C(F)(F)C(F)(F)C(F)(F)C(F)(F)C(F)(F)C(F)(F)F` [Perfluorooctanoic_acid] the figure was above 100 µM; with `O=C(O)C(F)(F)C(F)(F)C(F)(F)C(F)(F)F` [Perfluoropentanoic_acid], above 100 µM.
Molecule `O=C(O)C(F)(F)C(F)(F)F` [Perfluoropropanoic_acid] came in with a POD vs vehicle above 100 µM.
Consider `O=S(=O)([O-])C(F)(F)C(F)(F)C(F)(F)C(F)(F)F.[K+]` [Potassium_perfluorobutanesulfonate], for which the POD vs vehicle is above 100 µM.
